Assays:
glucokinase (GK) enzyme = target: T1, glucokinase (GK) enzyme (Homo sapiens, UniProt P35557); test: In-vitro glucokinase (GK) activation assay (coupled with glucose-6-phosphate dehydrogenase, absorbance at 340); format: biochemical; conditions: glucose 2.5 mM; for activity at 0.1 µM: 0.1 uM compound; for activity at 0.1 µM / activity at 1 µM / activity at 5 µM / activity at 10 µM: read-out: % of GK activity wrt DMSO; for activity at 1 µM: 1 uM compound; for activity at 5 µM: 5 uM compound; for activity at 10 µM: 10 uM compound; for EC50: GK enzyme 0.2 units, ATP 1 mM
T1 sequence (P35557 1-465): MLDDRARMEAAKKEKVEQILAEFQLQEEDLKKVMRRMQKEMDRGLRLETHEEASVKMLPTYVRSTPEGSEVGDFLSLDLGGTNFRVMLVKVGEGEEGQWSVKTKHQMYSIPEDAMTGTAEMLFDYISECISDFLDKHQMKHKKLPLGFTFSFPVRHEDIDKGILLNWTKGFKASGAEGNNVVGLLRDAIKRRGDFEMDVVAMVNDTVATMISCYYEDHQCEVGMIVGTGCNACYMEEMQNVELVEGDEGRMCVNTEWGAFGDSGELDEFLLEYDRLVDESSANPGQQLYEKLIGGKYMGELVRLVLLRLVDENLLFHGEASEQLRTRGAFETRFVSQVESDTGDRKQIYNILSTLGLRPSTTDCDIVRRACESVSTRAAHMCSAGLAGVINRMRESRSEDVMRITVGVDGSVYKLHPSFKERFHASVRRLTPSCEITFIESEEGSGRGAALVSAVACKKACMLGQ
Method: The compound of the invention was incubated with glucokinase (GK) enzyme (0.2 units) for 10 minutes in assay buffer at 26° C. After incubation, addition of glucose-6-phosphate dehydrogenase (2.5 units), ATP (1 mM) and glucose (2.5 mM). Absorbance is measured at 340 nm for 15 minutes with 10 second interval using UV transparent plate in kinetic mode on Spectramax-190 at 30° C.

Male C57 mice = test: Oral glucose tolerance test (OGTT), overnight fasted; format: in vivo; conditions: for % change in glucose levels Vs Control: treated at −30 min, oral glucose load 3 g/kg at 0 min; for % change in glucose levels Vs Control, Mean: Mean over the time points, oral glucose load 3 g/kg
Method: Effect of Glucokinase Activators (GKAs) of the Present Invention on Glucose Reduction Determined by Oral Glucose Tolerence Test (OGTT):
Male C57 mice, aged 8-10 weeks were fasted overnight and subjected to the treatment of selected GK activator at time denoted as −30 min. At time 0 min, mice were given oral glucose load of 3 g/kg, and the glucose excursion was observed upto 120 min. The percentage change against the change in glucose levels of control are mentioned in the table 2.

Row | Structure (SMILES) | activity at 0.1 µM (glucokinase (GK) enzyme) [%] | activity at 1 µM (glucokinase (GK) enzyme) [%] | activity at 5 µM (glucokinase (GK) enzyme) [%] | activity at 10 µM (glucokinase (GK) enzyme) [%] | EC50 (glucokinase (GK) enzyme) [nM] | % change in glucose levels Vs Control (Male C57 mice; 0 min Vs −30 min) [%] | % change in glucose levels Vs Control (Male C57 mice; 30 min Vs −30 min) [%] | % change in glucose levels Vs Control (Male C57 mice; 60 min Vs −30 min) [%] | % change in glucose levels Vs Control (Male C57 mice; 120 min Vs −30 min) [%] | % change in glucose levels Vs Control, Mean (Male C57 mice) [%]
1 | Cc1nnc(-c2ccc(Oc3cc(OC4CCN(C)C4=O)cc(C(=O)Nc4nccs4)c3)cc2)o1 (centres unmarked) [Example 1, 3-(4-(5-Methyl-1,3,4-oxadiazol-2-yl)phenoxy)-5-(1-methyl-2-oxopyrrolidin-3-yloxy)-N-(thiazol-2-yl)benzamide] | 276 | 309 | 316 | 309 | 21 | −32.7 ± 2.8 | 3.3 ± 9.7 | −39.5 ± 7.0 | −24.3 ± 9.0 | −23.3
2 | Cc1nnc(-c2ccc(Oc3cc(OC4CCN(C)C4=O)cc(C(=O)Nc4ncc(C)s4)c3)cc2)o1 (centres unmarked) [Example 2, 3-(4-(5-Methyl-1,3,4-oxadiazol-2-yl)phenoxy)-5-(1-methyl-2-oxopyrrolidin-3-yloxy)-N-(5-methylthiazol-2-yl)benzamide] | 205 | 227 | 233 | 236 | 40 | −34.5 ± 3.2 | −13.5 ± 8.8 | −49.6 ± 11.2 | −53.2 ± 3.1 | −37.7
3 | CCOC(=O)Cc1csc(NC(=O)c2cc(Oc3ccc(-c4nnc(C)o4)cc3)cc(OC3CCN(C)C3=O)c2)n1 (centres unmarked) [Example 3] | 186 | 284 | 312 | 316 | 196 | −18.8 ± 5.8 | −4.1 ± 6.0 | −3.9 ± 4.3 | −15.8 ± 3.7 | −10.6
4 | Cc1nnc(-c2ccc(Oc3cc(OC4CCN(C)C4=O)cc(C(=O)Nc4nc(CC(=O)O)cs4)c3)cc2)o1 (centres unmarked) [Example 4, 2-(2-(3-(4-(5-Methyl-1,3,4-oxadiazol-2-yl)phenoxy)-5-((1-methyl-2-oxopyrrolidin-3-yl)oxy)benzamido)thiazol-4-yl)acetic acid] | 148 | 273 | 330 | 322 | 320 | −23.3 ± 3.1 | −22.1 ± 6.1 | −21.8 ± 5.9 | −16.7 ± 5.9 | −21.0
5 | CCc1nnc(-c2ccc(Oc3cc(OC4CCN(C)C4=O)cc(C(=O)Nc4nc(C)cs4)c3)cc2)o1 (centres unmarked) [Example 27, 3-(4-(5-Ethyl-1,3,4-oxadiazol-2-yl)phenoxy)-5-((1-methyl-2-oxopyrrolidin-3-yl)oxy)-N-(4-methylthiazol-2-yl)benzamide] | 177 | 262 | 355 | 365 | – | – | – | – | – | –
6 | CC(C)Cc1nnc(-c2ccc(Oc3cc(OC4CCN(C)C4=O)cc(C(=O)Nc4nccs4)c3)cc2)o1 (centres unmarked) [Example 28, 3-(4-(5-Isobutyl-1,3,4-oxadiazol-2-yl)phenoxy)-5-((1-methyl-2-oxopyrrolidin-3-yl)oxy)-N-(thiazol-2-yl)benzamide] | 131 | 248 | 336 | 338 | – | – | – | – | – | –
7 | CCc1nnc(-c2ccc(Oc3cc(OC4CCN(C)C4=O)cc(C(=O)Nc4nccs4)c3)cc2)o1 (centres unmarked) [Example 29, 3-(4-(5-Ethyl-1,3,4-oxadiazol-2-yl)phenoxy)-5-((1-methyl-2-oxopyrrolidin-3-yl)oxy)-N-(thiazol-2-yl)benzamide] | 167 | 268 | 335 | 347 | – | – | – | – | – | –
8 | Cc1csc(NC(=O)c2cc(Oc3ccc(-c4nnc(CC(C)C)o4)cc3)cc(OC3CCN(C)C3=O)c2)n1 (centres unmarked) [Example 30, 3-(4-(5-Isobutyl-1,3,4-oxadiazol-2-yl)phenoxy)-5-((1-methyl-2-oxopyrrolidin-3-yl)oxy)-N-(4-methylthiazol-2-yl)benzamide] | 126 | 249 | 370 | 386 | – | – | – | – | – | –
